Measured values: patent publication US11045457B2, “Piperidinyl-3-(aryloxy)propanamides and propanoates” (priority 2018, dated 2021)

Columns and labels:
[1] = target: T1, SSTR4 (Homo sapiens (Human), UniProt P31391); assay: Inhibition of forskolin stimulated cAMP in CHO-K1 cells overexpressing SSTR4; type: cell-based; conditions: for EC50: read-out: SSTR4 Activity pEC50 (converted)
In short: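 Read-out is a HTRF LANCE Ultra cAMP competition using Eu-labelled streptavidin and biotin-cAMP, incubated 60 min at room temperature. It followed a 30 min room-temperature exposure of Kreb's Ringer-washed cells to compound plus forskolin. Potency is expressed as pEC50.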

[2] = target: T1, SSTR4; assay: SSTR4 I-125 somatostatin competition binding assay (membranes from CHO-K1 cells overexpressing SSTR4); conditions: competition with I-125 labeled somatostatin; for IC50: read-out: SSTR4 Binding pIC50 (converted)

T1 sequence (P31391 whole entry): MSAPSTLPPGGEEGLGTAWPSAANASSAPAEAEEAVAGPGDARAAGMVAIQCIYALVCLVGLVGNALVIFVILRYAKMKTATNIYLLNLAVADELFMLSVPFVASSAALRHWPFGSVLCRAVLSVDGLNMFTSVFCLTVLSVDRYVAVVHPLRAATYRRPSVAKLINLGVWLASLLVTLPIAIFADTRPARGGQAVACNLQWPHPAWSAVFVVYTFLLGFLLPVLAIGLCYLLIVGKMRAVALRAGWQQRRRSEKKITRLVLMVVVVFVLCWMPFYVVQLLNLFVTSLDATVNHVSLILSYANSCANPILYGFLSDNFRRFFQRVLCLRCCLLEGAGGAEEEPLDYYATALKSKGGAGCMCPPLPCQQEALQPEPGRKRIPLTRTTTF

Structure (SMILES) | EC50 [1] | IC50 [2] | SSTR4 Activity pEC50 [1] | SSTR4 Binding pIC50 [2]
Cc1cccnc1OCC(F)(F)C(=O)N[C@@H]1CCN(C)C[C@H]1C (racemic) [Example 199, N-(trans-1,3-dimethylpiperidin-4-yl)-2,2-difluoro-3-((3-methylpyridin-2-yl)oxy)propanamide] | 0.158 µM | 0.794 µM | – | –
C[C@H]1CNCC[C@@H]1NC(=O)C(C)(C)COc1ccccc1F [Example 196, 3-(2-fluorophenoxy)-2,2-dimethyl-N-((3S,4S)-3-methylpiperidin-4-yl)propanamide] | – | – | 8.5 | 7.5
Cc1ncccc1[C@@H]1CNCC[C@H]1OC(=O)C(C)(C)COc1ncccc1C(F)(F)F (racemic) [Example 170, trans-3-(2-methylpyridin-3-yl)piperidin-4-yl 2,2-dimethyl-3-((3-(trifluoromethyl)pyridin-2-yl)oxy)propanoate] | 0.0398 µM | 0.2 µM | – | –
C[C@H]1C[C@@H](NC(=O)C(C)(C)COc2ncccc2C(F)(F)F)CCN1C (relative stereo) [Example 129, cis-N-(1,2-dimethylpiperidin-4-yl)-2,2-dimethyl-3-((3-(trifluoromethyl)pyridin-2-yl)oxy)propanamide] | – | – | 7.7 | 6.8
Cc1cccnc1OCC(C)(C)C(=O)N[C@H]1CCN(C)C[C@@H]1F [Example 121, N-((3S,4S)-3-fluoro-1-methylpiperidin-4-yl)-2,2-dimethyl-3-((3-methylpyridin-2-yl)oxy)propanamide] | – | – | 6.9 | 6.6
CC(C)(COc1ncccc1C(F)(F)F)C(=O)N[C@H]1CCNC[C@@H]1F [Example 158, N-((3S,4S)-3-fluoropiperidin-4-yl)-2,2-dimethyl-3-((3-(trifluoromethyl)pyridin-2-yl)oxy)propanamide] | – | – | 8.2 | 8.1
C[C@H]1CN(C)CC[C@@H]1NC(=O)C(C)(C)COc1ncccc1C(F)(F)F [Example 105, N-((3S,4S)-1,3-dimethylpiperidin-4-yl)-2,2-dimethyl-3-((3-(trifluoromethyl)pyridin-2-yl)oxy)propanamide] | – | – | 8.1 | 7.2
C[C@H]1C[C@@H](NC(=O)C(C)(C)COc2ncccc2C(F)(F)F)CCN1C [Example 178, N-((2S,4S)-1,2-dimethylpiperidin-4-yl)-2,2-dimethyl-3-((3-(trifluoromethyl)pyridin-2-yl)oxy)propanamide] | – | – | – | 6.5
CCOc1ccccc1OCC(C)(C)C(=O)NC1CCN(C)CC1 [Example 78, 3-(2-ethoxyphenoxy)-2,2-dimethyl-N-(1-methylpiperidin-4-yl)propanamide] | – | – | 7.4 | 6.7
C[C@@H]1CN(C)CC[C@H]1NC(=O)C(C)(C)COc1ncccc1C(F)(F)F (relative stereo) [Example 11, trans-N-(1,3-dimethylpiperidin-4-yl)-2,2-dimethyl-3-((3-(trifluoromethyl)pyridin-2-yl)oxy)propanamide] | – | – | 8.0 | 7.0
CN1CCC(NC(=O)C(F)(F)COc2ccccc2Cl)CC1 [Example 215, 3-(2-chlorophenoxy)-2,2-difluoro-N-(1-methylpiperidin-4-yl)propanamide] | – | – | 6.7 | 6.0
C[C@@H]1CN(C)CC[C@H]1NC(=O)C(C)(C)COc1ncccc1OC(F)(F)F (single isomer, unassigned) [Example 108] | – | – | 6.8 | 6.1
Cc1cccnc1OCC(C)(C)C(=O)NC1CCN(C)CC1 [Example 1, 2,2-dimethyl-N-(1-methylpiperidin-4-yl)-3-((3-methylpyridin-2-yl)oxy)propanamide] | – | – | 7.3 | 6.4
Cc1cccnc1OCC(F)(F)C(=O)N[C@H]1CCNC[C@@H]1F [Example 201, 2,2-difluoro-N-((3S,4S)-3-fluoropiperidin-4-yl)-3-((3-methylpyridin-2-yl)oxy)propanamide] | – | – | 7.5 | 6.7
Cc1cnc(OCC(C)(C)C(=O)NC2CCN(C)CC2)c(C)c1 [Example 84, 3-((3,5-dimethylpyridin-2-yl)oxy)-2,2-dimethyl-N-(1-methylpiperidin-4-yl)propanamide] | – | – | 7.4 | 6.5
C[C@H]1C[C@@H](NC(=O)C(F)(F)COc2ncccc2C(F)(F)F)CCN1C (racemic) [Example 191, cis-N-(1,2-dimethylpiperidin-4-yl)-2,2-difluoro-3-((3-(trifluoromethyl)pyridin-2-yl)oxy)propanamide] | 0.0794 µM | 0.2 µM | – | –
Cc1cnc(OCC(C)(C)C(=O)N[C@@H]2CCNC[C@H]2F)c(C)c1 [Example 214, 3-((3,5-dimethylpyridin-2-yl)oxy)-N-((3R,4R)-3-fluoropiperidin-4-yl)-2,2-dimethylpropanamide] | – | – | 8.2 | 6.8
Cc1cnc(OCC(C)(C)C(=O)N[C@@H]2CCN(C)[C@H](C)C2)c(C)c1 [Example 218, N-((2R,4R)-1,2-dimethylpiperidin-4-yl)-3-((3,5-dimethylpyridin-2-yl)oxy)-2,2-dimethylpropanamide] | – | – | 7.5 | 6.2
C[C@H]1CN(C)CC[C@@H]1NC(=O)C(C)(C)COc1ncccc1OC(F)(F)F [Example 107, N-((3S,4S)-1,3-dimethylpiperidin-4-yl)-2,2-dimethyl-3-((3-(trifluoromethoxy)pyridin-2-yl)oxy)propanamide] | – | – | 8.7 | 7.7
O=C(N[C@H]1CCNC[C@@H]1F)C(F)(F)COc1ncccc1C(F)(F)F [Example 197, 2,2-difluoro-N-((3S,4S)-3-fluoropiperidin-4-yl)-3-((3-(trifluoromethyl)pyridin-2-yl)oxy)propanamide] | – | – | 7.7 | 7.0
CN1CCC(NC(=O)C(C)(C)COc2nccnc2C2CC2)CC1 [Example 80, 3-((3-cyclopropylpyrazin-2-yl)oxy)-2,2-dimethyl-N-(1-methylpiperidin-4-yl)propanamide] | – | – | 6.1 | –
Cc1cnc(OCC(C)(C)C(=O)NC2CCN(C)CC2)c(C2CC2)c1 [Example 6, 3-((3-cyclopropyl-5-methylpyridin-2-yl)oxy)-2,2-dimethyl-N-(1-methylpiperidin-4-yl)propanamide] | – | – | 7.3 | –
CN1CCC(NC(=O)C(C)(C)COc2nccc(Cl)c2F)CC1 [Example 44, 3-((4-chloro-3-fluoropyridin-2-yl)oxy)-2,2-dimethyl-N-(1-methylpiperidin-4-yl)propanamide] | – | – | 5.9 | –
CC(C)(COc1ncccc1C(F)(F)F)C(=O)NC1CCNCC1(F)F (centres unmarked) [Example 159, N-(3,3-difluoropiperidin-4-yl)-2,2-dimethyl-3-((3-(trifluoromethyl)pyridin-2-yl)oxy)propanamide] | – | – | 6.7 | –
Cc1cnc(OCC(C)(C)C(=O)N[C@@H]2CN(C)C[C@H]2c2ccc(Cl)cc2)c(C)c1 (relative stereo) [Example 93, trans-N-(4-(4-chlorophenyl)-1-methylpyrrolidin-3-yl)-3-((3,5-dimethylpyridin-2-yl)oxy)-2,2-dimethylpropanamide] | 0.2 µM | – | – | –
